Consider 7 compounds from publication PMC7114325 (Antiviral Research, 2008).

A value given as a limit tells only on which side of the number the result lay.

Series [1] is described as follows: in vitro. Particulars: hamster.
Series [2] is described as follows: in vitro. Particulars: African green monkey.
The test system of a further series is West Nile virus. Particulars: cited from earlier work.

On to `CC(C)=CCC[C@](C)(O)C1CC[C@@H]2C1CC[C@H]1C2(C)CC[C@H]2C(C)(C)C(=O)CCC12C` (stereo partly drawn) [Compound C01225, (5R,9S,14R)-dodecahydro-17-((S)-2-hydroxy-6-methylhept-5-en-2-yl)-4,4,8,10-tetramethyl-2Hcyclopenta[a]phenanthren-3(4H,9H,14H)-one], for which the CC50 in the series “in vitro [1]” and in the series “in vitro [2]” was greater than 100 µM throughout.
Consider `NC(=O)CCS(=O)(=O)c1ccc(Cl)cc1` [Compound C03455, 3-(4-Chlorobenzenesulfonyl)-propionamide], for which the “activity against West Nile virus” value in the series on West Nile virus is listed as “active”. The figures for the CC50 in “in vitro [1]” and in the series “in vitro [2]” were 87 ± 5.23 µM and greater than 100 µM, respectively.
As to `COc1cc(/C=C(/NC(=O)c2ccccc2)C(=O)NNC(=O)CN)ccc1O` [Compound C11472, (E)-N′-(2-aminoacetyl)-2-(benzamido)-3-(4-hydroxy-3-methoxyphenyl)acrylohydrazide], the values for the CC50 in the series “in vitro [1]” and in the series “in vitro [2]” were greater than 100 µM and 82 ± 4.33 µM, respectively.
The corresponding values for `CC1=C(C(=O)OCCc2ccccc2)C(c2ccccc2[N+](=O)[O-])C2=C(CCCC2=O)N1` (stereo not shown) [Compound C12344, 3-Quinolinecarboxylic acid, 1,4,5,6,7,8-hexahydro-2-methyl-4-(2-nitrophenyl)-5-oxo-, 2-phenylethyl ester] are greater than 100 µM and greater than 100 µM.
As for `CCOC(=O)c1cnc2ccc(OCC)cc2c1NCc1ccccc1` [Compound C26505, 4-Benzylamino-6-ethoxy-quinoline-3-carboxylic acid ethylester], the “activity against West Nile virus” value in the series on West Nile virus is recorded as “active”. Further, the CC50 is 78 ± 4.87 µM in the series “in vitro [1]” and greater than 100 µM in the series “in vitro [2]”.
With `N#Cc1c(N)nc(Sc2ccc(Cl)cc2)c(C#N)c1-c1cccs1` [Compound C47655, 2-Amino-6-[(4-chlorophenyl)thio]-4-(2-thienyl)pyridine-3,5-dicarbonitrile], the CC50 in the series “in vitro [1]” and in the series “in vitro [2]” was greater than 100 µM each time.
With “S-Nitroso-N-acetyl penicillamine [Compound C38477]”, the results for the CC50 with BHK-21 cells and with Vero E6 cells were 58 ± 1.22 µM and 84 ± 2.96 µM, respectively.
